Assay results: patent US20240226117A1, “TREATMENT OF CONGENITAL ADRENAL HYPOPLASIA” (ReveraGen BioPharma, Inc., priority 2021, published 2024)

Columns and labels:
[1] = tested on: DMD participants; test: Physician-reported adverse events in vamorolone trials and published corticosteroid studies; format: in vivo, human
Method: Study visits took place quarterly, including assessment of clinical laboratory results, vital signs, and AEs. All AEs were coded using the Medical Dictionary for Regulatory Activities (MedDRA version 19.0) system for reporting (preferred term and system organ class). Clinical efficacy assessments were performed at baseline of the VBP15-002 study, at six months (end of VBP15-003 study), and the 12-month midpoint visit of the VBP15-LTE study.
Treatment-emergent AEs (TEAEs) have been published for the 2-week treatment MAD study (VBP15-002) and the 24-week dose-finding extension study (VBP15-003). TEAEs were reported with similar incidence by participants in all four vamorolone groups.
A Data and Safety Monitoring Board report on the VBP15-LTE study covering all participants enrolled in the VBP15-LTE study (inclusive beyond the 12-month midpoint assessment) included three serious AEs (2 myoglobinuria events [in the same participant] and one pneumonia), all deemed unrelated to study drug. For all reported TEAEs, 402 were deemed unrelated to vamorolone, 37 were deemed remotely related, 29 were deemed possibly related, 11 were deemed probably related, and three were deemed definitely related. Of the 14 AEs probably and definitely related to vamorolone, 10 were weight gain, 2 were increased appetite, 1 was Cushingoid features, and 1 was irritability.
The incidences of physician-reported AEs typically for corticosteroid treatment were determined for participants that had been treated with vamorolone 6.0 mg/kg/day (for any duration), taken from the March 2019 Data Safety Update Report (DSUR) (pharmacovigilance report). Incidence rates of Cushingoid features, weight gain, hirsutism, and behavior change were studied (Table 8).

[2] = target: T1, glucocorticoid receptor (Homo sapiens, UniProt P04150); conditions: background statement; cited from earlier work
T1 sequence (P04150 1-777): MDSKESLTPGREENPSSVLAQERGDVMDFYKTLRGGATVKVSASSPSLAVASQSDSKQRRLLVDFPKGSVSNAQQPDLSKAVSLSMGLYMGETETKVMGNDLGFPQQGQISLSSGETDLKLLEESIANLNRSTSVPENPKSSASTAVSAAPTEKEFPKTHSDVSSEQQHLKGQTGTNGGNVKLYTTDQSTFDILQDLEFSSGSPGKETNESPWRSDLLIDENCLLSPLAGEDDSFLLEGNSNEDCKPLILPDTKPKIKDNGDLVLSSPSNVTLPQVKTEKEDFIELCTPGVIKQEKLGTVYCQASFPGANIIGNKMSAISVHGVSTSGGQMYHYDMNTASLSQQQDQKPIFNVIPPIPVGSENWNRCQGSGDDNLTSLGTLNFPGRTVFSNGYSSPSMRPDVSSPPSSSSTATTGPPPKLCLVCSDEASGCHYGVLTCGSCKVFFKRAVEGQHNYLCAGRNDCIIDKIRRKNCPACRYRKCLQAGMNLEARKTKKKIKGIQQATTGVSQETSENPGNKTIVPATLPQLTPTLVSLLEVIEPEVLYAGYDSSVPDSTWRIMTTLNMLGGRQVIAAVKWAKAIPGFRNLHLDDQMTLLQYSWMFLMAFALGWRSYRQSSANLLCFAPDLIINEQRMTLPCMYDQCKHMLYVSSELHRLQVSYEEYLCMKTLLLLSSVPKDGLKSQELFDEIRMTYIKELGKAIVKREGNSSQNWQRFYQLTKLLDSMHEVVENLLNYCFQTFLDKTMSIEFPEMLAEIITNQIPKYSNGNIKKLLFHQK

[3] = 6.0 mg/kg/day vamorolone (any duration), n = 38, DSUR 13 Mar. 2019

## C[C@@H]1C[C@H]2[C@@H]3CCC4=CC(=O)C=C[C@]4(C)C3=CC[C@]2(C)[C@@]1(O)C(=O)CO [Vamorolone, 17α,21-dihydroxy-16α-methylpregna-1,4,9(11)-triene-3,20-dione]
[1]; [3]
  Incidence of physician-reported Cushingoid: 2.6%
  Incidence of physician-reported behavior change: 0%^2
  Incidence of physician-reported hypertrichosis/hirsutism: 0%
  Incidence of physician-reported weight gain: 13.2%
[1]; VBP15-LTE
  Cushingoid features among the 14 AEs probably and definitely related: 1
  increased appetite among the 14 AEs probably and definitely related: 2
  irritability among the 14 AEs probably and definitely related: 1
  weight gain among the 14 AEs probably and definitely related: 10
[1]; VBP15-LTE, all reported TEAEs
  TEAEs deemed definitely related: three
  TEAEs deemed possibly related: 29
  TEAEs deemed probably related: 11
  TEAEs deemed remotely related: 37
  TEAEs deemed unrelated to vamorolone: 402
[1]; all LTE participants, all deemed unrelated to study drug
  serious AEs in VBP15-LTE (Data and Safety Monitoring Board report): three
[1]; oral, all doses tested (0.25, 0.75, 2.0, 6.0 mg/kg/day)
  safety and tolerability over the 24-week treatment period (VBP15-003): safe and well-tolerated
[2]
  binding to the glucocorticoid receptor: potently binds
